Source: patent publication US7452523B2 (priority 2004, dated 2008)
Read-outs that look alike come from different tables or passages of the source.

Legend:
[1] = test system: cough; details: nebulized before fibreoptic bronchoscopy; cited from earlier work
[2] = test system: mild to moderate asthma patients; details: for incidence of oropharyngeal numbing, noted at least once: 12 week study
[3] = test system: patient with persistent refractory tussive syncope; details: 1 ml of 1% nebulized every 4 hours for 10 days, with other anti-tussive drugs; cited from earlier work
[4] = test system: cough; details: cited from earlier work
[5] = test system: patients suffering from cough
[6] = test system: capsaicin-induced cough; details: lignocaine 20 mg, alone or with adrenaline; cited from earlier work
[7] = test system: cough; details: cited from earlier work; remark: listed apart in the source
[8] = test system: cough responses in guinea pigs; details: cited from earlier work
[9] = test system: persistent cough after stellate ganglion block; details: 1 ml of 2% in 2 ml normal saline, nebulized; cited from earlier work
[10] = test system: chronic refractory cough; details: 3 ml of 1% nebulized twice a day 6-10 weeks, with other drugs; cited from earlier work

CCN(CC)CC(=O)Nc1c(C)cccc1C [lidocaine, acetamide 2-(diethylamino)-N-(2,6-dimethylphenyl)]
time to cough suppression [1]: 10 to 15 min
patients with one or more respiratory AEs ([2]; 10 mg (16/55)): 29%
incidence of oropharyngeal numbing, noted at least once ([2]; 10 mg (22/55)): 40%
patients with at least one adverse event ([2]; 10 mg twice daily, 12 weeks (39/55)): 71%
incidence of oropharyngeal numbing, noted at least once ([2]; 40 mg (16/51)): 31.45%
patients with one or more respiratory AEs ([2]; 40 mg (18/51)): 35%
patients with at least one adverse event ([2]; 40 mg twice daily, 12 weeks (33/51)): 65%
lung deposition of lidocaine ([2]; compared with previous delivery): increased two- to three-fold
loss of gag reflex ([2]; human, in vivo): No loss of gag reflex
reports of bronchospasm upon lidocaine delivery ([2]; human, in vivo): no reports of bronchospasm
tracheal aspiration of food or liquid ([2]; human, in vivo): No case
syncopal episodes [3]: able to resolve syncopal episodes
cough ([4]; 10 to 20 mg every 4-6 hours, albuterol pretreatment): abolished cough
bronchoconstriction ([4]; 10 to 20 mg every 4-6 hours): not bronchoconstriction
bronchospasm on administration ([4]; in vivo): triggers bronchospasm
symptoms of cough patients sensitive to smoke, dust, airway pollution ([5]; 10 mg or 40 mg inhaled twice daily): substantial improvement of their symptoms
suppression of severe chronic cough ([5]; 16 mg lung dose delivered as 40 mg/1 ml saline, less than 2 minutes): very efficacious
cough in cystic fibrosis, bronchiectasis or other suppurative pulmonary disease ([5]; aerosolized): successful in suppressing the cough
tolerability and safety of aerosol ([5]; formulation pH between 5.5 and 7.0): well tolerated and safe
efficacy in seasonal non-severe cough ([5]; three mg delivered to the lung): efficacious
coughing [6]: significantly reduced coughing
anesthesia of oropharynx ([7]; 10 ml of 4%, about 30 minutes): substantial anesthesia of oropharynx
duration of cough suppression ([7]; after the first treatment, 10 ml of 4%): about 9 weeks
duration of cough suppression ([7]; after the second administration): 7.5 weeks
total number of coughs induced by capsaicin ([8]; 10 to 30 mg/ml): reduced the total number of coughs
onset of the first cough ([8]; aerosol 0.1 to 10 mg/ml): delay onset of the first cough
time course of cough responses ([8]; aerosol 0.1 to 10 mg/ml): no significant effect
total number of coughs ([8]; aerosol 0.1 to 10 mg/ml): reduce the total number of coughs
treatment of persistent cough [9]: Treatment was achieved
treatment of refractory cough [10]: effective
